The record followed here is ChEMBL document CHEMBL6096673, “In Pursuit of Lead Innovation: Pharmaceutically Important and Distinct Amide-Free Succinate Dehydrogenase Inhibitors” (J Med Chem, 2025).

SMILES strings stand for the structures. ≈ marks a conversion by molar mass, not a printed value.

Test [1] relates to Sclerotinia sclerotiorum. The test can be described thus: Antifungal activity against Sclerotinia sclerotiorum. The test is classed as functional, organism-based.
The target in the next test is T1, Liver carboxylesterase (Sus scrofa, UniProt Q29550).
T1 sequence (Q29550 whole entry): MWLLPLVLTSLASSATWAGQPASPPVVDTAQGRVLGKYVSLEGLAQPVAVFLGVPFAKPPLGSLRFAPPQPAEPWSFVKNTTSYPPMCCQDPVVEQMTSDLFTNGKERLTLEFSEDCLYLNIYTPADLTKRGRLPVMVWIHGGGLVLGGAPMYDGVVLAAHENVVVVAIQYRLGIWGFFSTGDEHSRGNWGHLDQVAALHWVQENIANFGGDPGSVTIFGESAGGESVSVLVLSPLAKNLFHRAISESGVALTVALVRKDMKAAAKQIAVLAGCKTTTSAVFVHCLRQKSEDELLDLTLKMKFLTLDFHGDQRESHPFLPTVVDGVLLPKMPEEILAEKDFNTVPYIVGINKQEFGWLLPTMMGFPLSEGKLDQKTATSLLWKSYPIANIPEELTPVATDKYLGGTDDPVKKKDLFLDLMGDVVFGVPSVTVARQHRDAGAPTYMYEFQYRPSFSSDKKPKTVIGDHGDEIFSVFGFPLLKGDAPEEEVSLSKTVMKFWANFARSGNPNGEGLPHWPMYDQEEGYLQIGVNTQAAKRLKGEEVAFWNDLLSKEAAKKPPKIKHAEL
The test can be described thus: Inhibition of porcine liver carboxylesterase.

A further test relates to Rhizoctonia solani. The test can be described thus: Antifungal activity against Rhizoctonia solani. Format: functional, organism-based.
A further test has as its system Fusarium graminearum. Kind of test: Antifungal activity against Gibberella zeae. The test is classed as functional, organism-based.
A further test deals with Alternaria solani. Kind of test: Antifungal activity against Alternaria solani. The test is classed as functional, organism-based.
The next test has as its system Botrytis cinerea. Kind of test: Antifungal activity against Botrytis cinerea. The test is classed as functional, organism-based.
Test [2] is described as follows: Binding affinity to carboxylesterase (unknown origin) assessed as inhibition constant by fluorescence analysis. Further details: species or system Homo sapiens.
The subject of test [3] is Trichophyton mentagrophytes. Kind of test: Antifungal activity against Trichophyton mentagrophytes. Format: functional, organism-based.
In another test the test system is Plasmodium falciparum. The test can be described thus: Antiplasmodial activity against Plasmodium falciparum. Format: functional, organism-based.
Test [4] concerns Sclerotinia sclerotiorum. The test can be described thus: Antifungal activity against Sclerotinia sclerotiorum assessed as inhibition of fungal growth. The test is classed as functional, organism-based.

One may read the EC50 as the concentration giving half of the maximal effect. A lower EC50 goes with an effect from little substance. On to `CCOC(=O)C(C#N)C(CC(=O)c1ccc(Br)cc1)c1ccco1` (configuration not stated), for which, in the test with Sclerotinia sclerotiorum [1], the EC50 turned out to be 3.3 µg/mL (≈ 8.46 µM).

For orientation: IC50 means the point on the concentration scale where inhibition reaches its midpoint. `COc1[nH]c(=O)c(C(=O)[C@@H](C)C[C@H](C)[C@@H](Cl)CCl)c(O)c1OC` [ATPENIN A5] displayed an IC50 at Liver carboxylesterase of 14 nM.

With `COc1nc(O)c(C(=O)CC[C@H](C)[C@@H](Cl)CCl)c(O)c1OC`, at Liver carboxylesterase, it took 315 nM to reach half-maximal inhibition (IC50).

Take `Cn1cc(/C=N/Oc2cccc(Br)c2)c(C(F)F)n1`: in the test with Rhizoctonia solani, the IC50 came to 4.53 µg/mL (≈ 13.7 µM).

As for `Fc1ccc(C2C=C(c3ccc4c(c3)OCO4)NC(=S)N2)cc1` (configuration not stated), the EC50 stood at 0.57 µg/mL (≈ 1.74 µM) in the test on Fusarium graminearum, 0.07 µg/mL (≈ 0.213 µM) with Alternaria solani and 0.44 µg/mL (≈ 1.34 µM) in the test on Botrytis cinerea.

Take `COC(=O)C1=C(C)OC(N)=C(C#N)C1c1ccc(Cl)s1` (configuration not stated): the IC50 in the test on Rhizoctonia solani was determined as 1.06 µg/mL (≈ 3.41 µM).

`COc1nc(O)c(C(=O)[C@@H](C)C[C@H](C)[C@H](C)Cl)c(O)c1OC`: the IC50 at Liver carboxylesterase is 110 nM.

In general, Ki refers to a dissociation constant, usually derived from enzyme kinetics or from competition with a known ligand. `O=C(CC(=O)C(F)(F)F)c1cccs1`: the Ki in test [2] is 610 nM.

On Liver carboxylesterase, `COc1nc(O)c(C(=O)[C@H](C)C[C@H](C)[C@@H](Cl)CCl)c(O)c1OC` displayed a half-inhibitory concentration (IC50) of 2000 nM.

As for `Cn1cc(/C=N/Oc2cccc(F)c2)c(C(F)F)n1`, 2.94 µg/mL (≈ 10.9 µM) corresponded to half-maximal inhibition in the test on Rhizoctonia solani (IC50).

In the test with Sclerotinia sclerotiorum [1], `Cc1ccc(-c2cc(-c3ccc(Cl)cc3)nc(-n3cccn3)n2)o1` had an EC50 of 0.08 µg/mL (≈ 0.238 µM).

The compound `Cc1ccc(-c2cc(-c3ccco3)nc(C)n2)cc1` displayed an EC50 in the test with Sclerotinia sclerotiorum [1] of 0.07 µg/mL (≈ 0.28 µM).

`COc1nc(O)c(C(=O)[C@@H](C)C[C@H](C)[C@H](Cl)CCl)c(O)c1OC`: half-maximal inhibition against Liver carboxylesterase (IC50) required 22.4 nM.

At Liver carboxylesterase, `COc1nc(O)c(C(=O)[C@@H](C)C[C@@H](C)[C@@H](Cl)CCl)c(O)c1OC` returned an IC50 of 7 nM.

With `Cn1cc(/C=N\Oc2cccc(Br)c2)c(C(F)F)n1`, half-maximal inhibition in the test on Rhizoctonia solani (IC50) required 0.21 µg/mL (≈ 0.636 µM).

With `C=CCC/C=C\C=C/CCCCCCC1CC[C@@H]([C@@H]2CC[C@@H](CC(=O)OC)OO2)O1` (single isomer, unassigned), the IC50 against Liver carboxylesterase is < 1000 nM.

With `C=CCC/C=C\C=C/CCCCCC[C@H]1CC[C@H]([C@@H]2CC[C@@H](CC(=O)OC)OO2)O1`, the IC50 against Liver carboxylesterase is < 1000 nM.

In the test on Rhizoctonia solani, `Cn1cc(/C=N\Oc2cccc(F)c2)c(C(F)F)n1` returned an IC50 of 1.35 µg/mL (≈ 5.01 µM).

`Cc1cc(O)c2c(c1)O[C@@]1(C)CC[C@H]3C(C)(C)CCC[C@]34CO[C@@H]2[C@H]41` [SICCANIN]: the IC50 in test [3] was 0.3 µg/mL (≈ 0.876 µM); in the test with Plasmodium falciparum, 8400 nM.

As to `Cn1cc(/C=N\Oc2cccc(I)c2)c(C(F)F)n1`, the IC50 in the test on Rhizoctonia solani came to 1.43 µg/mL (≈ 3.79 µM).

As for `COc1cc(-c2ccc(Br)o2)cc(-c2ccc(Br)cc2)n1`, in the test on Sclerotinia sclerotiorum [4], the IC50 is 1.15 µg/mL (≈ 2.81 µM).

In the case of `Cn1cc(/C=N/Oc2cccc(I)c2)c(C(F)F)n1`, the IC50 with Rhizoctonia solani is 1.57 µg/mL (≈ 4.16 µM).

Take `CC[C@@H](C)C[C@H](C)C(=O)c1c(O)nc(OC)c(OC)c1O`: the midpoint of inhibition against Liver carboxylesterase, the IC50, lay at 2100 nM.

Take `O=C(NCCc1ncc(C(F)(F)F)cc1Cl)c1ccccc1C(F)(F)F` [FLUOPYRAM]: on Liver carboxylesterase, the IC50 was < 1000 nM.
